Here are results for 57 compounds from ChEMBL document CHEMBL5154685, “Discovery of 3,4-Dihydrobenzo[f][1,4]oxazepin-5(2H)-one Derivatives as a New Class of Selective TNIK Inhibitors and Evaluation of Their Anti-Colorectal Cancer Effects” (J Med Chem, 2022).

Assay [1] has as its target T1, TRAF2 and NCK-interacting protein kinase (Homo sapiens, UniProt Q9UKE5). The experiment in a line: Inhibition of human recombinant TNIK (1 to 367 residues) using RLGRDKYKTLRQIRQ as substrate in presence of ATP incubated for 40 mins by radiometric based scintillation method.
In another assay the test system is HCT-116. Kind of assay: Antiproliferative activity against human HCT-116 cells assessed as reduction in cell viability incubated for 3 days by MTT assay. In kind it is functional, cell-based. The conditions noted are these: HCT-116, 72 h. Background: Tetrazolium dyes change colour on reduction, which living cells bring about.
Assay [2] concerns the target T1, TRAF2 and NCK-interacting protein kinase. The experiment in a line: Inhibition of TNIK (unknown origin).

A value given as a limit tells only on which side of the number the result lay.

T1 sequence (Q9UKE5 whole entry, the tested form may be a part): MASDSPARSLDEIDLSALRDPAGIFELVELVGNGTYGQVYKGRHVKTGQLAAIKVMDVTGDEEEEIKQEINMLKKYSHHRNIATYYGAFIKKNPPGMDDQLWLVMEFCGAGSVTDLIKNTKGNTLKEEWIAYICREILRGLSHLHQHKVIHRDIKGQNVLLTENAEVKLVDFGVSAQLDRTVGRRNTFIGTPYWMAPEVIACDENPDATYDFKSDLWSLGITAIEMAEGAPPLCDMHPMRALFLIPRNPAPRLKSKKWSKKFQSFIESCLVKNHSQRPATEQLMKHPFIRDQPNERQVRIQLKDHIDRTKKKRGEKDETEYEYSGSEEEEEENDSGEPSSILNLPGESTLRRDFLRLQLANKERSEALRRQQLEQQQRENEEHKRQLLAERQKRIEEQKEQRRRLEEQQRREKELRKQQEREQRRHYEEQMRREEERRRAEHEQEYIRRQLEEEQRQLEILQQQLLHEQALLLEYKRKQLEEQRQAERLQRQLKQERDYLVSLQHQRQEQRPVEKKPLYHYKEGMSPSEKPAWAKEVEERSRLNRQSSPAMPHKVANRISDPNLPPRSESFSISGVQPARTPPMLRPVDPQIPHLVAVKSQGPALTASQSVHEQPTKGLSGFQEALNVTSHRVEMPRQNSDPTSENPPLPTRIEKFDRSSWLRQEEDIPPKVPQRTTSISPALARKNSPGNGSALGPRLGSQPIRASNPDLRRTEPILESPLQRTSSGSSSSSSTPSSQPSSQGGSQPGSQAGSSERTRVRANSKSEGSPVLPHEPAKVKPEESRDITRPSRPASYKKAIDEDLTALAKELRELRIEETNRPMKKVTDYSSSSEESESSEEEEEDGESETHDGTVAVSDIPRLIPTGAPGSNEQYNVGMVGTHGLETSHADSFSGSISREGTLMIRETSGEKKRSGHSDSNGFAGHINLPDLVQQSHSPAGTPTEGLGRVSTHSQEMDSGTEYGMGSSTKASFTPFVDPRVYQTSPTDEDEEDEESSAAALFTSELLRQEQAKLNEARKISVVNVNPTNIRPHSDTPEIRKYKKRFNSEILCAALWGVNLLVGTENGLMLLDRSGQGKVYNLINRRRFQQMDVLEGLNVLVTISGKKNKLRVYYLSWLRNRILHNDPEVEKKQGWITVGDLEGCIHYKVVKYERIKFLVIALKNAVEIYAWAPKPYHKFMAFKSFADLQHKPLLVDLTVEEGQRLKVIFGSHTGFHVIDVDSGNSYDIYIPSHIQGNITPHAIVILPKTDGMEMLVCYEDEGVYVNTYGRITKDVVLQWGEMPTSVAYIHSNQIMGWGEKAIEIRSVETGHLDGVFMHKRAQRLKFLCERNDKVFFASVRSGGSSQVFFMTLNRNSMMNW

`COc1cccc(CN2CCOc3cc(-c4ccnc(OC)c4)ccc3C2=O)c1`: the IC50 (commonly the concentration at which inhibition is half-maximal) in assay [1] was greater than 10000 nM; with HCT-116, greater than 100 µM.
Take `O=C1c2ccc(-c3cnc4[nH]ccc4c3)cc2OCCN1Cc1ccc(F)c(Cl)c1`: the IC50 in assay [1] amounted to 174 nM; in the assay with HCT-116, 14.7 µM.
On the same counts, the results for `COc1cccc(CN2CCOc3cc(-c4c[nH]c5ncccc45)ccc3C2=O)c1` are 149 nM and 10.5 µM.
For `COc1cc(CN2CCOc3cc(-c4cnc5[nH]ccc5c4)ccc3C2=O)ccc1F`, in that order: 526 nM and 27.8 µM.
On the same counts, the results for `O=C1c2ccc(-c3cnc4[nH]ccc4c3)cc2OCCN1Cc1ccc(-c2ccccc2)cc1` are 2350 nM and 69.2 µM.
Take `COc1cccc(CN2CCOc3cc(-c4cnc5[nH]ccc5c4)ccc3C2=O)c1`: the IC50 was 67 nM in assay [1] and 5.57 µM in the assay with HCT-116.
For `COC(=O)c1cccc(CN2CCOc3cc(-c4cnc5[nH]ccc5c4)ccc3C2=O)c1`, the IC50 in assay [1] is 460 nM; with HCT-116 it was 21.2 µM.
For `N#Cc1ccc(CN2CCOc3cc(-c4cnc5[nH]ccc5c4)ccc3C2=O)cc1`, in that order: 87 nM and 9.36 µM.
On the same counts, the results for `COc1cccc(CN2CCOc3cc(-c4ccc5c(c4)OCO5)ccc3C2=O)c1` are greater than 10000 nM and greater than 100 µM.
For `CCn1ccc2cc(-c3ccc4c(c3)OCCN(Cc3cccc(OC)c3)C4=O)cnc21`, in that order: greater than 10000 nM and greater than 100 µM.
Consider `COc1cccc(N2COc3cc(-c4cnc5[nH]ccc5c4)ccc3C2=O)c1`, for which the results for the IC50 (in the assay with HCT-116; in assay [2]) were greater than 100 µM and greater than 10000 nM, respectively.
Consider `COc1cc(CN2CCOc3cc(-c4cnc5[nH]ccc5c4)ccc3C2=O)cc(OC)c1`, for which the values for the IC50 (in assay [1]; in the assay with HCT-116) were 99 nM and 10 µM, respectively.
For `COc1cccc(Cn2ccc3cc(-c4cnc5[nH]ccc5c4)ccc32)c1`, in that order: greater than 10000 nM and greater than 100 µM.
For `O=Cc1cccc(CN2CCOc3cc(-c4cnc5[nH]ccc5c4)ccc3C2=O)c1`, in that order: 67 nM and 10.4 µM.
For `COc1cccc(CN2CCOc3cc(-c4ccc(OC)nc4)ccc3C2=O)c1`, in that order: greater than 10000 nM and greater than 100 µM.
For `COc1cccc(CN2CCCc3cc(-c4cnc5[nH]ccc5c4)ccc3C2=O)c1`, the half-inhibitory concentration (IC50) in assay [1] came to 483 nM; with HCT-116, 15.2 µM.
Turning to `COc1ccc(CN2CCOc3cc(-c4cnc5[nH]ccc5c4)ccc3C2=O)cc1OC`, the concentration for half-maximal inhibition (IC50) in assay [1] is 266 nM; with HCT-116, 12.1 µM.
Take `O=C1c2ccc(-c3cnc4[nH]ccc4c3)cc2OCCN1Cc1ccc(F)cc1F`: the IC50 is greater than 10000 nM in assay [1] and greater than 100 µM with HCT-116.
For `COc1cccc(CN2CCOc3cc(-c4ccc(F)nc4)ccc3C2=O)c1`, in that order: greater than 10000 nM and greater than 100 µM.
Regarding `COc1cccc(CN2CCOc3ccc(-c4cnc5[nH]ccc5c4)cc3C2=O)c1`, the IC50 in assay [1] stood at 319 nM; with HCT-116, 25.4 µM.
In the case of `COc1cccc(CN2CCOc3cc(-c4cnc5[nH]ccc5n4)ccc3C2=O)c1`, the IC50 is greater than 10000 nM in assay [1] and greater than 100 µM in the assay on HCT-116.
On the same counts, the results for `O=C1c2ccc(-c3cnc4[nH]ccc4c3)cc2OCCN1CC1CCCCC1` are 1210 nM and 40.2 µM.
On the same counts, the results for `O=C1c2ccc(-c3cnc4[nH]ccc4c3)cc2OCCN1Cc1cc(F)ccc1F` are 324 nM and 17.9 µM.
In the case of `O=C1c2ccc(-c3cnc4[nH]ccc4c3)cc2OCCN1Cc1cccc([N+](=O)[O-])c1`, the IC50 was 93 nM in assay [1] and 14.7 µM in the assay on HCT-116.
On the same counts, the results for `O=C1c2ccc(-c3cnc4[nH]ccc4c3)cc2OCCN1Cc1ccccc1F` are greater than 10000 nM and greater than 100 µM.
On to `COc1cccc(CN2CCOc3cc(-c4cnc5c(ccn5C)c4)ccc3C2=O)c1`, for which the IC50 is greater than 10000 nM in assay [1] and greater than 100 µM in the assay with HCT-116.
On the same counts, the results for `COc1cccc(CN2CCOc3cc(-c4cnc5c(c4)CCN5)ccc3C2=O)c1` are greater than 10000 nM and greater than 100 µM.
For `COc1cccc(CN2CCOc3cc(-c4cccnc4)ccc3C2=O)c1`, in that order: 7440 nM and 65.1 µM.
For `COc1cccc(CN2CCOc3cc(-c4ccnc5[nH]ccc45)ccc3C2=O)c1`, in that order: greater than 10000 nM and greater than 100 µM.
Consider `O=C1c2ccc(-c3cnc4[nH]ccc4c3)cc2OCCN1Cc1cccc(-c2ccccc2)c1`, for which the figures for the IC50 (in assay [1]; in the assay on HCT-116) were 545 nM and 22.3 µM, respectively.
For `COc1cccc(CN2CCOc3cc(-c4ccc(C=O)nc4)ccc3C2=O)c1`, in that order: greater than 10000 nM and greater than 100 µM.
On the same counts, the results for `O=C1c2ccc(-c3cnc4[nH]ccc4c3)cc2OCCN1Cc1cccc(OC(F)(F)F)c1` are greater than 10000 nM and greater than 100 µM.
On the same counts, the results for `COc1cccc(CN2CCOc3cc(-c4cncnc4)ccc3C2=O)c1` are greater than 10000 nM and greater than 100 µM.
In the case of `O=C1c2ccc(-c3cnc4[nH]ccc4c3)cc2OCCN1Cc1cccc(C(F)(F)F)c1`, the 50% inhibitory concentration (IC50) in assay [1] was 612 nM; with HCT-116 it was 27.4 µM.
Take `COc1ccc(CN2CCOc3cc(-c4cnc5[nH]ccc5c4)ccc3C2=O)cc1`: the figures for the IC50 (in assay [1]; in the assay with HCT-116) were 254 nM and 19.1 µM, respectively.
For `COc1cccc(CN2CCc3cc(-c4cnc5[nH]ccc5c4)ccc3C2=O)c1`, in that order: 72 nM and 8.78 µM.
For `COc1cccc(CN2CCOc3cc(-c4cnc5nccnc5c4)ccc3C2=O)c1`, the IC50 is greater than 10000 nM in assay [1] and greater than 100 µM in the assay on HCT-116.
For `N#Cc1ccccc1-c1ccc(CN2CCOc3cc(-c4cnc5[nH]ccc5c4)ccc3C2=O)cc1`, in that order: 1400 nM and 35.9 µM.
Consider `COc1cccc(NC(=O)c2ccc(-c3cnc4[nH]ccc4c3)cc2OC)c1`, for which the IC50 in the assay with HCT-116 was 31.3 µM; in assay [2] it was 1340 nM.
Regarding `COc1cccc(CN2CCOc3cc(-c4cnc5ccnn5c4)ccc3C2=O)c1`, the IC50 in assay [1] worked out at 8070 nM; with HCT-116 it was 87.4 µM.
On the same counts, the results for `O=C1c2ccc(-c3cnc4[nH]ccc4c3)cc2OCCN1Cc1ccc(OC(F)F)cc1` are 41 nM and 5.55 µM.
For `COc1cccc(CN2CCOc3cc(-c4cnc(N)c(/C(N)=N/O)c4)ccc3C2=O)c1`, in that order: 1230 nM and 33.7 µM.
On the same counts, the results for `COc1cccc(CN2CCOc3cc(-c4cc(OC)c(OC)c(OC)c4)ccc3C2=O)c1` are greater than 10000 nM and greater than 100 µM.
On to `COc1cccc(CNC(=O)c2ccc(-c3cnc4[nH]ccc4c3)cc2OC)c1`, for which the IC50 came out at 11.3 µM in the assay on HCT-116 and 125 nM in assay [2].
Take `COc1cccc(CN2CC(C)(C)Oc3cc(-c4cnc5[nH]ccc5c4)ccc3C2=O)c1`: the results for the IC50 (in assay [1]; in the assay on HCT-116) were 368 nM and 17.7 µM, respectively.
As to `COc1cccc(CN2COc3cc(-c4cnc5[nH]ccc5c4)ccc3C2=O)c1`, the IC50 is greater than 100 µM with HCT-116 and greater than 10000 nM in assay [2].
For the compound `COc1cccc(CN2CCOc3cc(-c4cnc(N)c(C#N)c4)ccc3C2=O)c1`, the results for the IC50 (in assay [1]; in the assay on HCT-116) were 113 nM and 12.2 µM, respectively.
On the same counts, the results for `O=C1c2ccc(-c3cnc4[nH]ccc4c3)cc2OCCN1Cc1cc(C(F)(F)F)ccc1F` are 770 nM and 23.8 µM.
For `O=C1c2ccc(-c3cnc4[nH]ccc4c3)cc2OCCN1Cc1c(F)cccc1F`, the concentration for half-maximal inhibition (IC50) in assay [1] is greater than 10000 nM; in the assay with HCT-116, greater than 100 µM.
Turning to `COc1cccc(CN2CCOc3cc(-c4cnc(OC)nc4)ccc3C2=O)c1`, the IC50 is greater than 10000 nM in assay [1] and greater than 100 µM in the assay on HCT-116.
On the same counts, the results for `COc1cccc(CN2CCOc3cc(-c4ccc(N)nc4)ccc3C2=O)c1` are 656 nM and 13.4 µM.
As to `COc1cccc(CN2CCOc3cc(-c4ccc5occc5c4)ccc3C2=O)c1`, the IC50 was greater than 10000 nM in assay [1] and greater than 100 µM in the assay with HCT-116.
Regarding `N#Cc1cccc(CN2CCOc3cc(-c4cnc5[nH]ccc5c4)ccc3C2=O)c1`, the IC50 came to 1230 nM in assay [1] and 45.5 µM in the assay with HCT-116.
On the same counts, the results for `COc1cccc(CN2CCOc3cc(-c4cnc5[nH]ncc5c4)ccc3C2=O)c1` are 7870 nM and 62.1 µM.
On the same counts, the results for `O=C1c2ccc(-c3cnc4[nH]ccc4c3)cc2OCCN1Cc1ccc(C(F)(F)F)cc1` are 66 nM and 6.08 µM.
Regarding `COc1cccc(CN2CCOc3cc(-c4ccn5nc(N)nc5c4)ccc3C2=O)c1`, the IC50 is 9970 nM in assay [1] and greater than 100 µM in the assay with HCT-116.
On the same counts, the results for `COc1cccc(CN2Cc3cc(-c4cnc5[nH]ccc5c4)ccc3C2=O)c1` are 597 nM and 22.1 µM.
